The record followed here is US9068081B2, “Thiophene azo dyes and laundry care compositions containing the same” (MILLIKEN & COMPANY, priority 2010, dated 2015).

This series can be described thus: Aqueous partition value of a dye (water/1-octanol partitioning). It is filed as physicochemical. The settings on record: deionized water / 1-octanol 10.0 mL each, absorbance at dye λmax, (Af/Ai)×100%. Here is the method: Dissolve in deionized water to a final volume of 10.0 mL an amount of dye sufficient to provide a solution absorbance value between 0.25 and 1.0, said absorbance being determined at the dye λmax between 400 nm and 750 nm, using a cuvette with 1.0 cm path length. Measure the absorbance of the sample at the dye λmax in a UV/Vis spectrophotometer, then transfer the entire 10.0 mL solution to a 50.0 mL plastic centrifuge tube. Add 10.0 mL of 1-octanol, cap the tube, and mix vigorously for 30 seconds using a Vortex™ mixer. Leave the tube standing undisturbed until the layers cleanly phase separate.
Using a transfer pipette, withdraw an aliquot of the aqueous (bottom) layer and transfer it to a cuvette with 1.0 cm path length for spectrophotometric analysis. Analyze the solution as before, and quantify the absorbance loss at λmax as “% of Dye Remaining in Aqueous Layer” as detailed below: % of Dye Remaining in Aqueous Layer=Aqueous Partition Value (APV)=(Af/Ai)×100% wherein Ai is the initial solution absorbance at λmax and Af is the final solution absorbance at λmax. II. Method for Determining Hueing Efficiency for Detergents • a.) Two 25 cm×25 cm fabric swatches of 16 oz white cotton interlock knit fabric (270 g/square meter, brightened with Uvitex BNB fluorescent whitening agent, from Test Fabrics. P.O. Box 26, Weston, Pa., 18643) are obtained. • b.) Prepare two one liter aliquots of tap water containing 1.55 g of AATCC standard heavy duty liquid (HDL) test detergent. • c.) Add a sufficient amount the dye to be tested to one of the aliquots from Step b.) above to produce an aqueous solution absorbance of 1 AU. • d.) Wash one swatch from a.) above in one of the aliquots of water containing 1.55 g of AATCC standard heavy duty liquid (HDL) test detergent and wash the other swatch in the other aliquot. Such washing step should be conducted for 30 minutes at room temperature with agitation. After such washing step separately rinse the swatches in tap water and air dry the swatches in the dark. • e.) After rinsing and drying each swatch, the hueing efficiency, DE*eff, of the dye is assessed by determining the L*, a*, and b* value measurements of each swatch using a Hunter LabScan XE reflectance spectrophotometer with D65 illumination, 10° observer and UV filter excluded. The hueing efficiency of the dye is then calculated using the following equation: DE*eff=((L*c−Ls)^2+(a*c−a*s)^2+(b*c−b*s)^2)^1/2 • wherein the subscripts c and s respectively refer to the L*, a*, and b* values measured for the control, i.e., the fabric sample washed in detergent with no dye, and the fabric sample washed in detergent containing the dye to be screened. III. Method for Determining Wash Removability • a.) Prepare two separate 150 ml aliquots of HDL detergent solution, according to AATCC Test Method 61-2003, Test 2A and containing 1.55 g/liter of the AATCC HDL formula in distilled water. • b.) A 15 cm×5 cm sample of each fabric swatch from the Method for Determining of Hueing Efficiency For Detergents described above is washed in a Launderometer for 45 minutes at 49° C. in 150 ml of a the HDL detergent solution prepared according to Step 11. a.) above. • c.) The samples are rinsed with separate aliquots of rinse water and air dried in the dark, and then L*, a*, and b* value measurements of each swatch are taken using a Hunter LabScan XE reflectance spectrophotometer with D65 illumination, 10° observer and UV filter excluded. The amount of residual coloration is assessed by measuring the DE*res, calculated using the following equation: DE*res=((L*c−L*s)^2+(a*c−a*s)^2+(b*c−b*s)^2)^1/2 • wherein the subscripts c and s respectively refer to the L*, a*, and b* values measured for the control, i.e., the fabric sample initially washed in detergent with no dye, and the fabric sample initially washed in detergent containing the dye to be screened. The wash removal value for the dye is then calculated according to the formula: % removal=100×(1−DE*res/DE*eff) C. Test Results […]
For the compound `CC[N+](CC)(CC)CCN(CC[N+](CC)(CC)CC)c1ccc(/N=N/c2sc(C#N)c(C)c2C#N)c(C)c1` [Example 36], the “% Dye in Water Layer (Aqueous Partition Value)” value (“% Dye in Water Layer” for short) was 94%.

For `CC[N+](CC)(CC)CCOCCOCCN(CCOCC[N+](CC)(CC)CC)c1cc(OC)c(/N=N/c2sc(C#N)c(C)c2C#N)cc1OC` [Example 19], the “% Dye in Water Layer” value is listed as 78%. For `CCN(CCOCCOCCOCCOCCn1cc[n+](C)c1)c1ccc(/N=N/c2sc(C#N)c(C)c2C#N)c(C)c1` [Example 13], the “% Dye in Water Layer” value came out at 20%. For `CC[N+](CC)(CC)CCOCCOCCN(CCOCC[N+](CC)(CC)CC)c1ccc(/N=N/c2sc(C#N)c(C)c2C#N)c(C)c1` [Example 35], the “% Dye in Water Layer” value is recorded as 66%.

As for `COc1cc(/N=N/c2sc(C#N)c(C)c2C#N)c(C)cc1N(CCOCCOCC[N+](CCO)(CCO)CCO)CCOCC[N+](CCO)(CCO)CCO` [Example 22], the “% Dye in Water Layer” value was determined as 56%. For `CC[N+](CC)(CC)CCOCCOCCN(CCOCC[N+](CC)(CC)CC)c1cc(C)c(/N=N/c2sc(C#N)c(C)c2C#N)cc1OC` [Example 18] the value was 49%; for `COc1cc(/N=N/c2sc(C#N)c(C)c2C#N)c(C)cc1N(CCn1cc[n+](C)c1)CCn1cc[n+](C)c1` [Example 1], 97%. For `CCN(CC[N+](CC)(CC)CC)c1ccc(/N=N/c2sc(C#N)c(C)c2C#N)c(C)c1` [Example 7], the “% Dye in Water Layer” value is recorded as 15%. On to `COc1cc(/N=N/c2sc(C#N)c(C)c2C#N)c(C)cc1N(CCOCCOCC[N+](C)(C)CCO)CCOCC[N+](C)(C)CCO` [Example 21], for which the “% Dye in Water Layer” value is on record as 75%. With `Cc1cc(N(CCn2cc[n+](C)c2)CCn2cc[n+](C)c2)ccc1/N=N/c1sc(C#N)c(C)c1C#N` [Example 2] the figure was 83%; with `CCN(CCOCCOCCOCCOCC[N+](CC)(CC)CC)c1ccc(/N=N/c2sc(C#N)c(C)c2C#N)c(C)c1` [Example 12], 15%.
